Data published in PubChem BioAssay (NCI).
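Tested at 5 concentrations; 48 h exposure; 96-well plates; endpoints linearly interpolated, else capped at highest concentration. GI50 is the concentration that inhibits growth by half. TGI is the concentration that stops growth completely.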

Legend:
Test in all cases: inhibition of tumour cell growth, NCI panel, 48 h
A498 renal = test system: A498 renal
A549 NSCLC = test system: A549 NSCLC
HOP-62 NSCLC = test system: HOP-62 NSCLC
KM12 colon = test system: KM12 colon
NCI-H522 lung = test system: NCI-H522 lung
OVCAR-5 ovarian = test system: OVCAR-5 ovarian
SF-539 CNS = test system: SF-539 CNS
UACC-257 melanoma = test system: UACC-257 melanoma
UACC-62 melanoma = test system: UACC-62 melanoma
MCF7 breast = test system: MCF7 breast

Row | SMILES | GI50 (A498 renal) [µM] | TGI (A498 renal) [µM] | GI50 (A549 NSCLC) [µM] | TGI (A549 NSCLC) [µM] | GI50 (HOP-62 NSCLC) [µM] | TGI (HOP-62 NSCLC) [µM] | GI50 (KM12 colon) [µM] | TGI (KM12 colon) [µM] | GI50 (NCI-H522 lung) [µM] | TGI (NCI-H522 lung) [µM] | GI50 (OVCAR-5 ovarian) [µM] | TGI (OVCAR-5 ovarian) [µM] | GI50 (SF-539 CNS) [µM] | TGI (SF-539 CNS) [µM] | GI50 (UACC-257 melanoma) [µM] | TGI (UACC-257 melanoma) [µM] | GI50 (UACC-62 melanoma) [µM] | TGI (UACC-62 melanoma) [µM] | GI50 (MCF7 breast) [µM] | TGI (MCF7 breast) [µM]
1 | COc1cc(/C=C(/c2ccccc2)[N+](=O)[O-])c(OC)c2c1OCO2 | 1.54 | 3 | 2.1 | 5.03 | 2.32 | 5.12 | 1.84 | 3.44 | 1.59 | 4.03 | 1.76 | 3.58 | 1.7 | 3.09 | 1.58 | 3.4 | 1.44 | 2.98 | – | –
2 | O=C(O)c1c[nH]cc1C(=O)O | – | > 100 | – | > 100 | – | > 100 | – | > 100 | – | > 100 | – | > 100 | – | > 100 | – | > 100 | – | > 100 | – | –
3 | CC(C)[C@@H](COC(C)(C)C)N=CN1CCc2c([nH]c3ccccc23)C1 | – | > 100 | – | > 100 | – | > 100 | – | > 100 | – | > 100 | – | > 100 | – | > 100 | – | – | – | > 100 | – | –
4 | CCCCCCCCCCCCC(=O)[O-].CCCCCCCCCCCCC(=O)[O-].CCCCCCCCCCCCC(=O)[O-].CCCCCCCCCCCCC(=O)[O-].[Mo+2].[Mo+2] | – | – | 14.9 | 44.2 | – | – | 10.9 | 29.1 | – | – | 23.6 | 67 | 13.9 | 29.1 | 26.5 | 96.1 | 11.7 | 26.9 | – | –
5 | COc1ccc2c(C(=O)O)cc3cc(OC)c(OC)cc3c2c1 | – | – | – | > 100 | – | – | – | > 100 | – | > 100 | – | > 100 | – | > 100 | – | > 100 | – | > 100 | – | –
6 | CCOc1ccc(NC(=O)CC2SC(N)=NC2=O)cc1 (centres undefined) | – | – | – | > 100 | – | > 100 | – | > 100 | – | – | – | > 100 | – | – | – | > 100 | – | > 100 | – | –
7 | CCO[C@@H]1C2C=CC(C2)[C@H]1[N+](=O)[O-] (some centres undefined) | – | > 100 | – | > 100 | – | > 100 | – | > 100 | – | > 100 | – | > 100 | – | > 100 | – | > 100 | – | > 100 | – | –
8 | COC(=O)C(Cc1nc2ccc(Cl)cc2[nH]c1=O)C(=O)C(=O)Nc1ccccc1[N+](=O)[O-] (centres undefined) | – | > 100 | – | > 100 | – | > 100 | – | > 100 | – | > 100 | – | > 100 | – | > 100 | – | > 100 | – | > 100 | – | –
9 | CN(C)CCNC(=O)c1ccc(Cl)c2c(Nc3ccc(S(N)(=O)=O)cc3)c3ccccc3nc12 | – | 13.4 | – | 11.9 | – | 21.6 | – | 5.12 | – | 1.94 | – | 8.48 | – | 4.79 | – | 12.7 | – | 3.05 | – | –
10 | CC(=O)NC(CCCN(Cc1ccccc1)C(=O)N(CCCl)N=O)C(=O)NCc1ccccc1 (centres undefined) | – | > 72 | – | > 100 | – | 46.3 | – | > 100 | – | > 80.6 | – | > 100 | – | 20.6 | – | > 100 | – | > 100 | – | –
11 | N#Cc1ccccc1NC(=O)c1ccccc1 | – | > 100 | – | > 100 | – | > 100 | – | > 100 | – | – | – | > 100 | – | > 100 | – | > 100 | – | > 100 | – | –
12 | CC(C)=CCC/C(C)=C/Cc1c(O)ccc2c1[nH]c1cc(O)c(C)cc12 | – | – | – | > 25 | – | 23.4 | – | > 25 | – | > 25 | – | > 25 | – | 23.8 | – | – | – | > 25 | – | –
13 | C=CCc1ccc(O)c(-c2cc(C3Oc4c(-c5cc(CC=C)ccc5O)cc(O)cc4[C@@H]3CO)ccc2O)c1 (some centres undefined) | – | 61.5 | – | > 100 | – | 75 | – | 85.7 | – | 38.7 | – | > 100 | – | 56.3 | – | > 100 | – | 89.1 | – | –
14 | CC(=O)c1cccc(NCn2nnc3ccccc32)c1 | – | > 100 | – | > 100 | – | > 100 | – | > 100 | – | > 100 | – | – | – | > 100 | – | > 100 | – | > 100 | – | –
15 | N/N=C(\Cc1ccccc1)NN=C(N)N | – | > 100 | – | > 100 | – | – | – | > 100 | – | > 100 | – | > 100 | – | > 100 | – | > 100 | – | > 100 | – | –
16 | N#CC1C(N)=NNC12Nc1ccccc1N2 (centres undefined) | – | – | 9.43 | > 100 | 64.3 | > 100 | > 100 | > 100 | – | – | > 100 | > 100 | – | – | – | – | 3.28 | 33.8 | – | –
17 | COc1cnc2c(c1)C(=O)c1c-2n(CCCN2CCCC2)c(=O)c2cc(Cl)ccc12 | 0.384 | 6.01 | 0.605 | 10.2 | – | – | 2.11 | 10.3 | 0.27 | 13.8 | 5.02 | 11.3 | – | – | 7.85 | 21.6 | – | – | – | –
18 | CC1=NN(C(=O)c2ccc(Cl)cc2)C(=O)/C1=C/c1cccc([N+](=O)[O-])c1 | – | > 100 | – | > 100 | – | > 100 | – | > 100 | – | > 100 | – | > 100 | – | > 100 | – | > 100 | – | > 100 | – | –
19 | O=C(Cc1ccccc1)N/N=C(\C1=Nc2ccc([N+](=O)[O-])cc2NC1O)C(O)c1ccc([N+](=O)[O-])cc1 (centres undefined) | – | > 100 | – | > 100 | – | > 100 | – | – | – | > 100 | – | > 100 | – | > 100 | – | > 100 | – | > 100 | – | –
20 | Clc1ccc(CN2COc3c(cc(Cl)c4cccnc34)C2)cc1 | – | 24.8 | – | 6.12 | – | 3.35 | – | 6.32 | – | 3.12 | – | 8.11 | – | 4.92 | – | 9.13 | – | 4.11 | – | –
21 | O=C1C(=O)N(C2C3CC4CC(C3)CC2C4)C(=O)C(=O)C1c1nc2ccccc2o1 (centres undefined) | – | – | – | > 100 | – | > 100 | – | > 100 | – | – | – | > 100 | – | > 100 | – | > 100 | – | > 100 | – | –
22 | CCOC(=O)c1c(C)n(Cc2ccc(Cl)cc2Cl)c2c1cc1oc(=O)c(=O)n3c(Cc4ccccc4)nc2c13 | – | – | 3.64 | 13.5 | 5.37 | 18.3 | 1.63 | 3.47 | 6.1 | 25.5 | 2.73 | 6.16 | 8.44 | 20.7 | 17.3 | 36.3 | 14.5 | 28.2 | 2.52 | 8.07
